Here are results for 30 compounds from US10774071B2, “PD-1/PD-L1 inhibitors” (Gilead Sciences, Inc., priority 2018, dated 2020).

Where two headings read alike, the source gives them in different places.

For one test, the target named is PD-1/PD-L1 (Homo sapiens (Human), UniProt Q9NZQ7). Put plainly: PD-1/PD-L1 biochemical protein-protein interaction assay (ALPHA). In kind it is binding. Conditions: read-out: IC50 PD-L1-PD1. On the procedure: Compounds were tested in biochemical protein-protein interaction assays to determine if they can specifically block the interaction between the extracellular domains of PD-1/PD-L1 or CTLA/CD80. Binding of the protein pairs is measured using a bead based Amplified Luminescent Proximity Homogeneous Assay (ALPHA) platform. […] Final protein concentration in the assays were 0.3 nM (His tagged PD-L1), 2.5 nM (biotinylated Fc-PD-1), 1 nM (His tagged CTLA4) and 1 nM (biotinylated CD80).

The target of another test is PD-L1 (Homo sapiens (Human), UniProt Q9NZQ7). Put plainly: PD-L1/PD-L1 dimerization biochemical protein-protein interaction assay (ALPHA). In kind it is binding. Conditions: read-out: AC50 PDL1 Dimer 1 nM.
Where [1] appears, read: 0.3 nM His tagged PD-L1, 2.5 nM biotinylated Fc-PD-1, Table 3B.
The mark [2] stands for this setting: 0.5 nM His tagged PD-L1 and 0.5 nM FLAG tagged PD-L1, Table 4B.
The mark [3] stands for this setting: 0.3 nM His tagged PD-L1, 2.5 nM biotinylated Fc-PD-1, readings of 0.064 nM are equal to or less than 0.064 nM.
Where [4] appears, read: 0.5 nM His tagged PD-L1 and 0.5 nM FLAG tagged PD-L1, Table 4A.

Sequence of PD-L1 (Q9NZQ7 19-238): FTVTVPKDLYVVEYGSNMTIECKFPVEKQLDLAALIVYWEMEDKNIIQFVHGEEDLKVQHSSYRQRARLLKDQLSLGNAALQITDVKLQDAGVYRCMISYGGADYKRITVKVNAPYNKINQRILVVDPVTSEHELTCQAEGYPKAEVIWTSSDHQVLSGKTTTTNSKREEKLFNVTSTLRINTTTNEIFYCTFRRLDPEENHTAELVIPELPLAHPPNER
Sequence of PD-L1 (Q9NZQ7 19-238): as above
Sequence of PD-1/PD-L1 (Q9NZQ7 19-238): as above

What is called IC50 is the concentration that inhibits the measured activity by half. What is called AC50 is the midpoint of the concentration-response curve, whichever way the signal moves. Turning to `COc1nc(-c2cccc(-c3cccc4c3CC[C@@H]4Oc3nc(OC)c(CN4CC5CC5(C(=O)O)C4)cc3Cl)c2Cl)ccc1CNC[C@@H]1CCC(=O)N1` (stereo partly drawn) [B-99], at PD-1/PD-L1 (setting [1]), the half-maximal inhibitory concentration (IC50) was determined as 0.086 nM. In addition, the half-maximal activity concentration (AC50) on PD-L1 (setting [2]) amounted to 67.9 nM.

For the compound `COc1nc(-c2cccc(-c3cccc4c3CC[C@@H]4Nc3nc(OC)c(CN4C5CCC4(C(=O)O)CC5)cc3C(F)(F)F)c2Cl)ccc1CN1CC(C)(O)C1` [A-60], on PD-1/PD-L1 (setting [3]), the IC50 was no more than 0.064 nM. On PD-L1 (setting [4]), the AC50 was determined as 13.9 nM.

With `COc1nc(-c2cccc(-c3cccc4c3CC[C@@H]4Nc3nc(OC)c(CNC(C)(C)C(=O)O)cc3C(F)(F)F)c2Cl)ccc1CNC[C@@H]1CCC(=O)N1` [A-40], the IC50 at PD-1/PD-L1 (setting [3]) was no more than 0.064 nM. Besides, the AC50 on PD-L1 (setting [4]) was determined as 6.81 nM.

In the case of `COc1nc(-c2cccc(-c3cccc4c3CC[C@@H]4Oc3nc4c(nc3Cl)c(CN3CC5(CNC(=O)C5)C3)nn4C)c2Cl)ccc1CNC[C@@H]1CCC(=O)N1` [B-146], on PD-1/PD-L1 (setting [1]), the IC50 amounted to 0.41 nM. Further, the concentration at half-maximal activity (AC50) on PD-L1 (setting [2]) worked out at 297 nM.

As to `COc1nc(-c2cccc(-c3cccc4c3CC[C@@H]4Nc3nc(OC)c(CN[C@@H](C)C(=O)O)nc3C(F)(F)F)c2Cl)ccc1CNC[C@H]1C[C@](C)(O)C1` [A-86], the 50% inhibitory concentration (IC50) at PD-1/PD-L1 (setting [3]) is no more than 0.064 nM. Moreover, the concentration at half-maximal activity (AC50) on PD-L1 (setting [4]) stood at 29.2 nM.

With `COc1nc(-c2cccc(-c3cccc4c3CC[C@@H]4Nc3nc(OC)c(CN[C@H](C(=O)O)C4CC4)nc3C(F)(F)F)c2Cl)ccc1CNC[C@@H]1CCC(=O)N1` [A-101], the IC50 on PD-1/PD-L1 (setting [3]) was no more than 0.064 nM. Also, the AC50 at PD-L1 (setting [4]) is 3.9 nM.

For `COc1nc(-c2cccc(-c3cccc4c3CC[C@@H]4Oc3nc(OC)c(CN4CC5CCCC4(C(=O)O)C5)cc3Cl)c2Cl)ccc1CNC[C@@H]1CCC(=O)N1` (stereo partly drawn) [B-181], the IC50 on PD-1/PD-L1 (setting [1]) was 0.064 nM. Further, at PD-L1 (setting [2]), the concentration at half-maximal activity (AC50) was found to be 18.9 nM.

In the case of `COc1nc(O[C@H]2CCc3c(-c4cccc(-c5cnc(CNC[C@@H]6CCC(=O)N6)cn5)c4Cl)cccc32)c(Cl)cc1CN1CC(C(=O)O)C1` [B-96], at PD-1/PD-L1 (setting [1]), the half-inhibitory concentration (IC50) was determined as 0.064 nM. Moreover, the AC50 on PD-L1 (setting [2]) was found to be 48.7 nM.

`COc1nc(-c2cccc(-c3cccc4c3CC[C@@H]4Oc3nc(OC)c(CN(C)[C@@H](C)C(=O)O)cc3C(F)(F)F)c2Cl)ccc1CNC[C@@H]1CCC(=O)N1` [B-257]: the IC50 at PD-1/PD-L1 (setting [1]) turned out to be 0.064 nM. For the same compound, at PD-L1 (setting [2]), the concentration at half-maximal activity (AC50) was 8.73 nM.

For the compound `COc1cc(-c2cccc(-c3cccc4c3CC[C@@H]4Oc3nc(OC)c(CN4CC[C@@H]5C[C@@]54C(=O)O)cc3C(F)(F)F)c2Cl)ccc1CNC[C@@H]1CCC(=O)N1` [B-117], the IC50 on PD-1/PD-L1 (setting [1]) amounted to 0.064 nM. For the same compound, the half-maximal activity concentration (AC50) at PD-L1 (setting [2]) stood at 0.813 nM.

Regarding `COc1cc(O[C@H]2CCc3c(-c4cccc(-c5ccc(CNC[C@@H]6CCC(=O)N6)c(OC)n5)c4Cl)cccc32)c(C(F)(F)F)cc1CNC1(C(=O)O)CC1` [B-220], the IC50 at PD-1/PD-L1 (setting [1]) worked out at 0.064 nM. The AC50 at PD-L1 (setting [2]) came out at 2.04 nM.

Regarding `COc1cc(-c2cccc(-c3cccc4c3CC[C@@H]4Oc3nc(OC)c(CN4CC(C(=O)O)C4)cc3Cl)c2Cl)ccc1CNC[C@@H]1CCC(=O)N1` [B-42], at PD-1/PD-L1 (setting [1]), the half-maximal inhibitory concentration (IC50) stood at 0.064 nM. Also, the AC50 at PD-L1 (setting [2]) stood at 12.5 nM.

Regarding `COc1nc(-c2cccc(-c3cccc4c3CC[C@@H]4Nc3nc(OC)c(CN[C@@H](C)C(=O)O)nc3C(F)(F)F)c2Cl)ccc1CNC[C@@H]1CCC(=O)N1` [A-106], the IC50 at PD-1/PD-L1 (setting [3]) is no more than 0.064 nM. Further, the half-maximal activity concentration (AC50) at PD-L1 (setting [4]) turned out to be 5.04 nM.

Regarding `COc1nc(-c2cccc(-c3cccc4c3CC[C@@H]4Nc3nc(OC)c(CN4CC5(C(=O)O)CCC4CC5)nc3C(F)(F)F)c2Cl)ccc1CNC[C@@H]1CC(O)C(=O)N1` (stereo partly drawn) [A-47], the IC50 on PD-1/PD-L1 (setting [3]) is no more than 0.064 nM. Moreover, the half-maximal activity concentration (AC50) at PD-L1 (setting [4]) turned out to be 22.3 nM.

With `COc1nc(O[C@H]2CCc3c(-c4cccc(-c5cnc(CNC[C@@H]6CCC(=O)N6)c(OC)n5)c4Cl)cccc32)c(C(F)(F)F)cc1CNC1(C(=O)O)CC1` [B-225], on PD-1/PD-L1 (setting [1]), the 50% inhibitory concentration (IC50) stood at 0.064 nM. The AC50 at PD-L1 (setting [2]) was found to be 5.32 nM.

For `CCC1C(C(=O)O)CCN1Cc1cc(C(F)(F)F)c(N[C@H]2CCc3c(-c4cccc(-c5ccc(CNC[C@@H]6CCC(=O)N6)c(OC)n5)c4Cl)cccc32)nc1OC` (stereo partly drawn) [A-79], the IC50 at PD-1/PD-L1 (setting [3]) is no more than 0.064 nM. Further, the half-maximal activity concentration (AC50) at PD-L1 (setting [4]) came out at 21.4 nM.

For `COc1nc(-c2cccc(-c3cccc4c3CC[C@@H]4Oc3nc(OC)c(CNC4(C(=O)O)CC4)cc3C(F)(F)F)c2Cl)ccc1CN1CC2(CNC(=O)C2)C1` [B-169], the IC50 on PD-1/PD-L1 (setting [1]) amounted to 0.064 nM. The AC50 on PD-L1 (setting [2]) turned out to be 11.1 nM.

Consider `COc1nc(-c2cccc(-c3cccc4c3CC[C@@H]4Oc3nc(OC)c(CNC4(C(=O)O)CCC4)cc3C(F)(F)F)c2Cl)ccc1CNC[C@@H]1CCC(=O)N1` [B-229], for which the concentration for half-maximal inhibition (IC50) at PD-1/PD-L1 (setting [1]) came out at 0.064 nM. The AC50 on PD-L1 (setting [2]) turned out to be 3.14 nM.

Take `COc1nc(-c2cccc(-c3cccc4c3CC[C@@H]4Nc3nc(OC)c(CN4CC[C@@](C)(C(=O)O)C4)nc3C(F)(F)F)c2Cl)ccc1CNC[C@@H]1CCC(=O)N1` [A-20]: the IC50 at PD-1/PD-L1 (setting [3]) is no more than 0.064 nM. Also, at PD-L1 (setting [4]), the half-maximal activity concentration (AC50) came to 29.1 nM.

As to `COc1nc(-c2cccc(-c3cccc4c3CC[C@@H]4Oc3nc(OC)c(CNC(C)(C)CC(=O)O)cc3C(F)(F)F)c2Cl)ccc1CNC[C@@H]1CCC(=O)N1` [B-196], the concentration for half-maximal inhibition (IC50) on PD-1/PD-L1 (setting [1]) came out at 0.064 nM. Also, at PD-L1 (setting [2]), the AC50 worked out at 6.31 nM.

For the compound `COc1nc(-c2cccc(-c3cccc4c3CC[C@@H]4Nc3nc(OC)c(CN[C@@H](C)C(N)=O)cc3C(F)(F)F)c2Cl)ccc1CNC[C@@H]1CCC(=O)N1` [A-98], on PD-1/PD-L1 (setting [3]), the IC50 was no more than 0.064 nM. The AC50 on PD-L1 (setting [4]) worked out at 40.3 nM.

In the case of `COc1cc(N[C@H]2CCc3c(-c4cccc(-c5ccc(CNC[C@@H]6CCC(=O)N6)c(OC)n5)c4Cl)cccc32)c(C(F)(F)F)cc1CN1CC[C@H](C(=O)O)C1` [A-10], at PD-1/PD-L1 (setting [3]), the IC50 was no more than 0.064 nM. Further, the AC50 on PD-L1 (setting [4]) was 16.7 nM.

`COc1nc(O[C@H]2CCc3c(-c4cccc(-c5cc(C)c(CN6CC(C)(O)C6)c(OC)n5)c4Cl)cccc32)c(Cl)cc1CN1CC[C@@H](C(=O)O)C1` [B-58]: the IC50 at PD-1/PD-L1 (setting [1]) was determined as 0.064 nM. For the same compound, the AC50 at PD-L1 (setting [2]) amounted to 49.7 nM.

Consider `COc1nc(O[C@H]2CCc3c(-c4cccc(-c5cc(C)c(CN6C[C@@H]7[C@H](C6)[C@H]7C(=O)O)c(OC)n5)c4Cl)cccc32)c(Cl)cc1CNC[C@@H]1CCC(=O)N1` [B-124], for which the concentration for half-maximal inhibition (IC50) at PD-1/PD-L1 (setting [1]) came to 0.084 nM. In addition, the AC50 at PD-L1 (setting [2]) turned out to be 78.5 nM.

In the case of `COc1cc(-c2cccc(-c3cccc4c3CC[C@@H]4Nc3nc(OC)c(CN4CC[C@@H](C(=O)O)C4)cc3C(F)(F)F)c2Cl)ccc1CNC[C@@H]1CCC(=O)N1` [A-36], the IC50 at PD-1/PD-L1 (setting [3]) is no more than 0.064 nM. The concentration at half-maximal activity (AC50) on PD-L1 (setting [4]) was determined as 2.05 nM.

For `COc1nc(-c2cccc(-c3cccc4c3CC[C@@H]4Nc3nc(OC)c(CN4CC(C(=O)O)C4)cc3C(F)(F)F)c2Cl)ccc1CNC[C@@H]1CCC(=O)N1` [A-55], the half-maximal inhibitory concentration (IC50) on PD-1/PD-L1 (setting [3]) is no more than 0.064 nM. The concentration at half-maximal activity (AC50) at PD-L1 (setting [4]) turned out to be 13.2 nM.

For the compound `COc1nc(-c2cccc(-c3cccc4c3CC[C@@H]4Oc3nc(OC)c(CNCC(N)=O)cc3C(F)(F)F)c2Cl)ccc1CNC[C@@H]1CCC(=O)N1` [B-266], the IC50 at PD-1/PD-L1 (setting [1]) was 0.251 nM. Besides, the half-maximal activity concentration (AC50) at PD-L1 (setting [2]) came out at 28.5 nM.

As for `COc1cc(-c2cccc(-c3cccc4c3CC[C@@H]4Oc3nc(OC)c(CN4CCC[C@@]4(C)C(=O)O)cc3C(F)(F)F)c2Cl)ccc1CNC[C@@H]1CCC(=O)N1` [B-118], the IC50 at PD-1/PD-L1 (setting [1]) turned out to be 0.064 nM. For the same compound, the AC50 at PD-L1 (setting [2]) was found to be 0.988 nM.

As to `COc1nc(-c2cccc(-c3cccc4c3CC[C@@H]4Nc3nc(OC)c(CN)nc3C(F)(F)F)c2Cl)ccc1CNC[C@@H]1CCC(=O)N1` [A-17], the IC50 on PD-1/PD-L1 (setting [3]) worked out at 0.077 nM. Also, at PD-L1 (setting [4]), the concentration at half-maximal activity (AC50) turned out to be 13.9 nM.

Turning to `COc1nc(-c2cccc(-c3cccc4c3CC[C@@H]4Nc3nc(OC)c(CN(C)CC(=O)O)nc3C(F)(F)F)c2Cl)ccc1CNC[C@@H]1CCC(=O)N1` [A-34], on PD-1/PD-L1 (setting [3]), the half-maximal inhibitory concentration (IC50) is no more than 0.064 nM. In addition, the concentration at half-maximal activity (AC50) on PD-L1 (setting [4]) worked out at 8.26 nM.
